One may read the IC50 as the concentration at which inhibition is half-maximal. Low readings indicate higher potency, high ones lower potency.

Structures are written as SMILES. Where a name gives a salt, the structure may show the parent alone.

This assay deals with T1, full-length human PRMT1 isoform 1 (GST-tagged) (Homo sapiens, UniProt Q99873).
T1 construct: GST-tagged PRMT1 was eluted with 50 mM Tris, 2 mM glutathione, pH 7.8, dialysed in buffer A and concentrated; made in house; host or cells: High Five insect cells (baculovirus)
T1 sequence (Q99873 with tags, fused parts or gaps): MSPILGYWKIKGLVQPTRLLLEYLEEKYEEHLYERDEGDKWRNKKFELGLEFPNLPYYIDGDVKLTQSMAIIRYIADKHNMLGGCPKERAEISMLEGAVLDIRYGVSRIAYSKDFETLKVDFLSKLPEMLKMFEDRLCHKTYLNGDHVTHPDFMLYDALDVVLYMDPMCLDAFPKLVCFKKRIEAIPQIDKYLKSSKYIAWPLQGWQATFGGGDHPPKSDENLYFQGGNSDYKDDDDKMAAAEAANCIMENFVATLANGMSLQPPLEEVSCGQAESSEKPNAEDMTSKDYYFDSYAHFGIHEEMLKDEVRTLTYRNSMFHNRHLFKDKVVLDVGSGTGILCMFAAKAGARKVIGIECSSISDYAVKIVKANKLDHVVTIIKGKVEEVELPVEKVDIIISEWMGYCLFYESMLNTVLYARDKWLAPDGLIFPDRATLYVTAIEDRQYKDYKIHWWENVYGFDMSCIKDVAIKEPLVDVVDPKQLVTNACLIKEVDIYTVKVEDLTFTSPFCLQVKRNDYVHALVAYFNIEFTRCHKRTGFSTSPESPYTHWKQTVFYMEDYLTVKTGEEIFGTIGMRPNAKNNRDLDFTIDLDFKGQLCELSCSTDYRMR
Nature of the assay: PRMT1 biochemical assay (3H-SAM Flashplate, histone H4 36-50 peptide). Conditions: 0.5 nM PRMT1, 30 min preincubation, 20 nM peptide. The text has this:
S-adenosylmethionine (SAM), S-adenosylhomocysteine (SAH), bicine, Tween20, dimethylsulfoxide (DMSO), bovine skin gelatin (BSG), and Tris(2-carboxyethyl)phosphine hydrochloride solution (TCEP) were purchased from Sigma-Aldrich at the highest level of purity possible. ^3H-SAM was purchase from American Radiolabeled Chemicals with a specific activity of 80 Ci/mmol. 384-well streptavidin Flashplates were purchased from PerkinElmer.
Peptide representative of human histone H4 residues 36-50 was synthesized with an N-terminal linker-affinity tag motif and a C-terminal amide cap by 21st Century Biochemicals. The peptide was purified by high-performance liquid chromatography (HPLC) to greater than 95% purity and confirmed by liquid chromatography mass spectrometry (LC-MS). The sequence was Biot-Ahx-[…]-amide (SEQ ID NO.:1).
Full-length human PRMT1 isoform 1 (NM_001536.5) transcript clone was amplified from an HEK 293 cDNA library, incorporating flanking 5′ sequence encoding a FLAG tag ([…]) (SEQ ID NO.:2) fused directly to Met 1 of PRMT1. The amplified gene was subcloned into pFastBacI (Life Technologies) modified to encode an N-terminal GST tag and a TEV cleavage sequence
Recombinant baculovirus were generated according to Bac-to-Bac kit instructions (Life Technologies). Protein over-expression was accomplished by infecting exponentially growing High Five insect cell culture at 1.5×10^6 cell/ml with 1:100 ratio of virus. Infections were carried out at 27° C. for 48 hours, harvested by centrifugation, and stored at −80° C. for purification.
GST-tagged PRMT1 was eluted with 50 mM Tris, 2 mM glutathione, pH 7.8, dialysed in buffer A and concentrated to 1 mg/mL. The purity of recovered protein was 73%. Reference: Wasilko, D. J. and S. E. Lee: “TIPS: titerless infected-cells preservation and scale-up” Bioprocess J., 5 (2006), pp. 29-32.
General Procedure for PRMT1 Enzyme Assays on Peptide Substrates.
The assays were all performed in a buffer consisting of 20 mM Bicine (pH=7.6), 1 mM TCEP, 0.005% BSG, and 0.002% Tween 20, prepared on the day of use. Compounds in 100% DMSO (1 ul) were spotted into a polypropylene 384-well V-bottom plates (Greiner) using a Platemate Plus outfitted with a 384-channel head (Thermo Scientific). DMSO (1 ul) was added to Columns 11, 12, 23, 24, rows A-H for the maximum signal control and 1 ul of SAH, a known product and inhibitor of PRMT1, was added to columns 11, 12, 23, 24, rows I-P for the minimum signal control. A cocktail (40 ul) containing the PRMT1 enzyme was added by Multidrop Combi (Thermo-Fisher). The compounds were allowed to incubate with PRMT1 for 30 min at room temperature, then a cocktail (10 ul) containing SAM and peptide was added to initiate the reaction (final volume=51 ul). The final concentrations of the components were as follows: PRMT1 was 0.5 nM, ^3H-SAM was 200 nM, non-radiolabeled SAM was 1.5 uM, peptide was 20 nM, SAH in the minimum signal control wells was 1 mM, and the DMSO concentration was 2%. The assays were stopped by the addition of non-radiolabeled SAM (10 ul) to a final concentration of 300 uM, which dilutes the ^3H-SAM to a level where its incorporation into the peptide substrate is no longer detectable. 50 ul of the reaction in the 384-well polypropylene plate was then transferred to a 384-well Flashplate and the biotinylated peptides were allowed to bind to the streptavidin surface for at least 1 hour before being washed once with 0.1% Tween20 in a Biotek ELx405 plate washer. The plates were then read in a PerkinElmer TopCount plate reader to measure the quantity of ^3H-labeled peptide bound to the Flashplate surface, measured as disintegrations per minute (dpm) or alternatively, referred to as counts per minute (cpm).
Where dpm=disintegrations per minute, cmpd=signal in assay well, and min and max are the respective minimum and maximum signal controls. […]
On to `CNCCN(C)Cc1c[nH]nc1C1CCC(C)(C)[C@H](COCCOC)C1` (stereo partly drawn) [compound 35, {2-[({3-[(3R)-3-[(2-methoxyethoxy)methyl]-4,4-dimethylcyclohexyl]-1H-pyrazol-4-yl}methyl)(methyl)amino]ethyl}(methyl)amine], for which the half-maximal inhibitory concentration (IC50) was 51.9 nM.
In the case of `CNCCN(C)Cc1nocc1[C@H]1CC[C@]2(CC1)CC(C)(C)CO2` [compound 118] it was 409 nM; in that of `CNCCN(C)Cc1c[nH]nc1[C@H]1CC[C@@H](COCC(F)(F)F)CC1` [compound 23, N1,N2-dimethyl-N1-((3-((1s,4s)-4-((2,2,2-trifluoroethoxy)methyl)cyclohexyl)-1H-pyrazol-4-yl)methyl)ethane-1,2-diamine], 50.8 nM.
In the case of `CNCCN(C)Cc1c[nH]nc1C1CCC(C)(C)[C@H](COCCCOC)C1` (stereo partly drawn) [compound 30, {2-[({3-[(3R)-3-[(3-methoxypropoxy)methyl]-4,4-dimethylcyclohexyl]-1H-pyrazol-4-yl}methyl)(methyl)amino]ethyl}(methyl)amine] it was 21 nM; in that of `CCOCC1(COCC)CC=C(c2n[nH]cc2CN(C)CCNC)CC1` [compound 60], 14.9 nM.
In the case of `CCOCC1(COCC)CCC(c2n[nH]cc2CN(C)CCN)CC1` [compound 123] it was 4.28 nM; in that of `CNCCN(C)Cc1nnc(C)n1[C@H]1CC[C@]2(CC1)CC(C)(C)CO2` [compound 93], more than 10000 nM; in that of `CNCCN(C)Cc1c[nH]nc1C1CCC(C)(C)[C@H](CO)C1` (stereo partly drawn) [compound 32, [(1R)-2,2-dimethyl-5-[4-({methyl[2-(methylamino)ethyl]amino}methyl)-1H-pyrazol-3-yl]cyclohexyl]methanol], 22.1 nM.
In turn, `CNCCN(C)Cc1scnc1[C@H]1CC[C@@]2(CC1)CC(C)(C)CO2` [compound 62] gave an IC50 of 4.18 nM.
As for `CNCCN(C)Cc1nc(C)sc1[C@H]1CC[C@@]2(CC1)CC(C)(C)CO2` [compound 77], the figure is 22.9 nM; as for `CNCCN(C)Cc1c[nH]nc1C1CCC(C)(C)[C@H](OCC(C)C)C1` (stereo partly drawn) [compound 20, ({3-[(3R)-4,4-dimethyl-3-(2-methylpropoxy)cyclohexyl]-1H-pyrazol-4-yl}methyl)(methyl)[2-(methylamino)ethyl]amine], 11 nM; as for `CNCCN(C)Cc1c(C)[nH]nc1[C@H]1CC[C@]2(CC1)CC(C)(C)CO2` [compound 58], 38.7 nM.
On to `CNCCN(C)Cc1nccn1[C@H]1CC[C@@]2(CC1)CC(C)(C)CO2` [compound 69], for which the IC50 worked out at 255 nM.
`CNCCN(C)Cc1nn(C)nc1[C@H]1CC[C@@]2(CC1)CC(C)(C)CO2` [compound 64]: the IC50 stood at 31.9 nM.
In the case of `CNCCN(C)Cc1c[nH]nc1[C@H]1CC[C@@]2(CC1)COC(C)(C)C2` [compound 126, N1-((3-((5r,8r)-3,3-dimethyl-2-oxaspiro[4.5]decan-8-yl)-1H-pyrazol-4-yl)methyl)-N1,N2-dimethylethane-1,2-diamine] it was 14.3 nM.
In the case of `CNCCN(C)Cc1n[nH]cc1[C@H]1CC[C@@]2(CC1)CC(C)(C)CO2` [compound 115] it was 11.5 nM; in that of `CCOCC1(COCC)CCC(c2nn(C)cc2CN(C)CCN)CC1` [compound 124], 13.7 nM; in that of `CC[C@]12CC[C@](CC)(C[C@@H](c3n[nH]cc3CN(C)CCNC)C1)O2` [compound 38, N1-((3-((1R,3s,5S)-1,5-diethyl-8-oxabicyclo[3.2.1]octan-3-yl)-1H-pyrazol-4-yl)methyl)-N1,N2-dimethylethane-1,2-diamine], 111 nM.
Compound `CNCCN(C)Cc1cn(C)nc1C1CCC(C)(C)[C@@H](C(=O)NCC(C)C)C1` (stereo partly drawn) [compound 25] displayed an IC50 of 702 nM.
As for `CN(CCN)Cc1nn(C)cc1[C@H]1CC[C@]2(CC1)CC(C)(C)CO2` [compound 102], the figure is 21.2 nM.
In the case of `CNCCN(C)Cc1nn(C)cc1[C@H]1CC[C@@]2(CC1)CC(C)(C)CO2` [compound 81] it was 22.8 nM; in that of `CNCCN(C)Cc1nc(C)sc1[C@H]1CC[C@]2(CC1)CC(C)(C)CO2` [compound 99], 35.6 nM; in that of `CN(CCN)Cc1c[nH]nc1[C@H]1CC[C@]2(CC1)CC(C)(C)CO2` [compound 106], 45.3 nM.
As for `CNCCN(C)Cc1nncn1[C@H]1CC[C@@]2(CC1)CC(C)(C)CO2` [compound 68], the figure is 4330 nM.
For `CNCCN(C)Cc1ncsc1[C@H]1CC[C@@]2(CC1)CC(C)(C)CO2` [compound 83], half-maximal inhibition (IC50) was put at 14.8 nM.
As for `CNCCN(C)Cc1n[nH]cc1[C@H]1CC[C@]2(CC1)CC(C)(C)CO2` [compound 116], the figure is 22.9 nM; as for `CNCCN(C)Cc1c[nH]nc1[C@@H]1CC[C@@H](OCCCOC)C2(CCCC2)C1` (racemic) [compound 26, N1-((3-((7R,10R)-10-(3-methoxypropoxy)spiro[4.5]decan-7-yl)-1H-pyrazol-4-yl)methyl)-N1,N2-dimethylethane-1,2-diamine], 14.3 nM; as for `CNCCN(C)Cc1sc(C)nc1[C@H]1CC[C@]2(CC1)CC(C)(C)CO2` [compound 100], 33.5 nM.
As for `CNCCN(C)Cc1ccnn1[C@H]1CC[C@]2(CC1)CC(C)(C)CO2` [compound 50, N1-((1-((5r,8r)-3,3-dimethyl-1-oxaspiro[4.5]decan-8-yl)-1H-pyrazol-5-yl)methyl)-N1,N2-dimethylethane-1,2-diamine], the figure is 20.9 nM; as for `CNCCN(C)Cc1c(Cl)ncn1[C@H]1CC[C@]2(CC1)CC(C)(C)CO2` [compound 97], 318 nM; as for `CNCCN(C)Cc1cncn1[C@H]1CC[C@@]2(CC1)CC(C)(C)CO2` [compound 76], 14.6 nM.
Take `CNCCN(C)Cc1nncn1[C@H]1CC[C@]2(CC1)CC(C)(C)CO2` [compound 90]: the IC50 was more than 10000 nM.
As for `CCC1(CC)C[C@]2(CC[C@H](c3n[nH]cc3CN(C)CCNC)CC2)OC1=O` [compound 33, (5s,8s)-3,3-diethyl-8-(4-((methyl(2-(methylamino)ethyl)amino)methyl)-1H-pyrazol-3-yl)-1-oxaspiro[4.5]decan-2-one], the figure is 13.2 nM; as for `CNCCN(C)Cc1c[nH]nc1[C@H]1CC[C@@]2(CCCCO2)CC1` [compound 3], 13.6 nM.
For the compound `CNCCN(C)Cc1c[nH]nc1C1=CCC(COCC(F)(F)F)CC1` (stereo not drawn) [compound 16, N1,N2-dimethyl-N1-((3-(4-((2,2,2-trifluoroethoxy)methyl)cyclohex-1-en-1-yl)-1H-pyrazol-4-yl)methyl)ethane-1,2-diamine], it took 11.2 nM to reach half-maximal inhibition (IC50).
In the case of `CNCCN(C)Cc1c[nH]nc1[C@H]1CC[C@]2(CCN(CCC(C)C)C2=O)CC1` [compound 10] it was 55 nM; in that of `CNCCN(C)Cc1nnc(C)n1[C@H]1CC[C@@]2(CC1)CC(C)(C)CO2` [compound 71], 5100 nM; in that of `CNCCN(C)Cc1c[nH]nc1C1=CCC(CF)(CF)CC1` [compound 15, N-((3-(4,4-bis(fluoromethyl)cyclohex-1-en-1-yl)-1H-pyrazol-4-yl)methyl)-N1,N2-dimethylethane-1,2-diamine], 5.6 nM.
The compound `CCC1CC(c2n[nH]cc2CN(C)CCNC)CC(C(=O)NCCOC)C1(C)C` (stereo not drawn) [compound 21, 3-ethyl-N-(2-methoxyethyl)-2,2-dimethyl-5-[4-([methyl[2-(methylamino)ethyl]amino]methyl)-1H-pyrazol-3-yl]cyclohexane-1-carboxamide dihydrochloride] returned an IC50 of 246 nM.

(Values after patent US20170291905A1, “ARGININE […] INHIBITORS AND USES THEREOF” (Epizyme, Inc., priority 2014, published 2017).)
